The values below come from patent publication US7962290B1, “Identification of pharmacophores from co-crystals of spleen tyrosine kinase (SYK) and SYK ligands” (Rigel Pharmaceuticals, Inc., priority 2006, dated 2011).

The data set is described as follows: Precipitation of ligand in crystal soaking solution. Type of data set: physicochemical. How it is done:
The pooled fractions were dialyzed against 300 mM NaCl, 10 mM Hepes pH 7.5, 5 mM DTT overnight at 4° C. then concentrated to 10.9 mg/mL in a Vivaspin centrifugal concentrator (MWCO=10 kDa). Crystals were obtained at 20° C. in sitting drop plates using 1 μl of protein and 1 μl of crystallant (20% PEG 3000, 100 mM Citrate pH 5.5) equilibrated against 200 μl of crystallant in the reservoir. Plate-shaped crystals were observed after approximately 24 hours. A single crystal was transferred from the crystallization drop to a plate containing crystallant and 11.5 mM Cpd. No. 1. The crystal was soaked for 22.5 hours in this solution. […] The crystal was transferred to a cryoprotectant containing 20% PEG 3000, 100 mM Citrate pH 5:5, 15% glycerol then plunge frozen into liquid nitrogen for X-ray diffraction analysis.
The pooled fractions were dialyzed against 300 mM NaCl, 10 mM Hepes pH 7.5, 5 mM DTT, 10% glycerol overnight at 4° C. then concentrated to 10.0 mg/mL in a Vivaspin centrifugal concentrator (MWCO=10 kDa). Crystals were obtained at 20° C. in sitting drop plates using 1 μl of protein and 1 μl of crystallant (20% PEG 3000, 100 mM Citrate pH 5.5) equilibrated against 200 μl of crystallant in the reservoir. Plate-shaped crystals were observed after approximately 24 hours. […]

Structures are written as SMILES.

`Oc1cccc(Nc2ncc(F)c(Nc3cccc(O)c3)n2)c1` [Cpd. No. 1]: where the note is “crystallant (20% PEG 3000, 100 mM Citrate pH 5.5) with 11.5 mM compound, 22.5 hours”, the “precipitation at the end of the soak” value was “Some precipitation”.

With `COc1cc(Nc2ncc(F)c(Nc3ccc4c(n3)NC(=O)C(C)(C)O4)n2)cc(OC)c1OC` [Cpd. No. 3], where the note is “soak solution 30% PEG 3000, 50 mM Citrate pH 5.5, 5% DMSO, 2.4 mM added, 23.5 hours, some precipitation observed”, the “concentration of the ligand in solution” value is given as “less than 2.4 mM”.
